The values below come from patent US12233419B2, “Devices, systems, and methods for single cell bacteria analysis” (priority 2018, dated 2025).

{TAMRA} = 6-carboxytetramethylrhodamine (NHS ester) fluorophore; {FAM} = 6-carboxyfluorescein (6-FAM) fluorophore; {IBFQ} = Iowa Black FQ dark quencher; {IBRQ} = Iowa Black RQ dark quencher

In one data set the test system is E. coli (EC136). Description: Single cell AST in adaptable microfluidic device. It is filed as cell-based. The conditions noted are these: ampicillin; EC137 and EC136 mixed 10:1. The method, then: We further evaluated the capability of the microfluidic system for identifying samples with multiple strains of the same species, which is challenging for genotypic diagnosis. Two strains of E. coli (EC137 and EC136 at a 10:1 ratio) with different antibiotic resistance profiles were tested. EC137 is susceptible to ampicillin while EC136 is resistant to ampicillin. Both strains were trapped in the microchannels at 180 kPa pressure with no spatial separation in the microchannel (FIG. 3F). […] In the antibiotic group, EC136 grew exponentially with ampicillin in the medium, whereas EC137 was lysed by ampicillin. FIG. 3J illustrates the growth curves of EC136 and EC137 in the same test.
E. coli, S. epidermidis, and M. bacteremicum were cultured in Mueller Hinton broth, Nutrient broth, and ATCC medium 1395, respectively. The bacteria were cultured to an optical density at 600 nm (OD600) around 0.2 (measured with Nanodrop 2000, Thermo Scientific) and diluted to 5×10^5 cfu/mL following the CLSI guideline. […] The concentration of oxacillin for S. epidermidis was 4 μg/mL. […] The length of the bacteria occupying the microchannel was measured in ImageJ (imagej.nih.gov/ij/). […] In this embodiment, the antibiotic resistance was determined as 50% reduction in the growth rate (or two-fold difference in growth rate) in the antibiotic group based on the distribution of the growth rate of single cells. […]

Data set [1] relates to S. epidermidis (ATCC 12228). Kind of data set: Single cell AST in adaptable microfluidic device. It is filed as cell-based. Particulars: for antibiotic response in polymicrobial sample: ampicillin 8 μg/mL, mixed with E. coli EC137 1:1. From the text: (§1) Taking advantage of microfluidic confinement, single cell AST can be performed phenotypically in the presence of antibiotics in the channel. Resistant strains can grow in the presence of the antibiotic while the antibiotic would inhibit the growth of susceptible strains (FIG. 1C). As the cross-section of the channels is compatible with the size of the pathogen, the bacterial growth is confined along the microchannel. The change in length of the bacteria in the channel over time is used to quantitatively measure the growth of the bacteria.
(§2) In embodiments, bacterial trapping channels of this disclosure are also capable of single cell AST by monitoring the phenotypic growth of the trapped bacteria in the channel. In control groups without antibiotics, the bacteria grew exponentially along the microchannels (FIG. 2B, E, H). […] Growth was measured by an increase in the length of the bacteria occupying the microchannel. The length was normalized according to the initial length for estimating the growth rate, to account for variation of the initial length. Comparison of the growth rate between the control group and the antibiotic group determined the susceptibility of the bacteria. […] Unless otherwise specified, this definition is applied throughout Part I of this disclosure.
(§3) E. coli, S. epidermidis, and M. bacteremicum were cultured in Mueller Hinton broth, Nutrient broth, and ATCC medium 1395, respectively. The bacteria were cultured to an optical density at 600 nm (OD600) around 0.2 (measured with Nanodrop 2000, Thermo Scientific) and diluted to 5×10^5 cfu/mL following the CLSI guideline. […] The concentration of oxacillin for S. epidermidis was 4 μg/mL. A 20 μl sample was loaded into the inlet of the microchannel. Culture medium was applied to immerse the whole device. The device was then loaded on a microscope (Leica DMI4000B) thermal stage for real-time monitoring (SensiCam QE, PCO) of the bacterial growth. The length of the bacteria occupying the microchannel was measured in ImageJ (imagej.nih.gov/ij/). To model the polymicrobial infection with different species, E. coli (EC137) and S. epidermidis were cultured to OD600 around 0.2, mixed at ratio of 1:1, and diluted to a final concentration of 1×10^6 cfu/mL with and without ampicillin (8 μg/mL). To mimic the polymicrobial infection with different strains, E. coli (EC137 and EC136) were mixed at a ratio of 10:1 and diluted to a final concentration of 5×10^6 cfu/mL with and without ampicillin. In this embodiment, the antibiotic resistance was determined as 50% reduction in the growth rate (or two-fold difference in growth rate) in the antibiotic group based on the distribution of the growth rate of single cells. In particular, we define the threshold value based on the standard derivation of single cell growth and t-statistics (two-tailed, unpaired). In our calibration tests, the standard deviations of the growth rate were below 25% of the mean (in the worst case scenario). In the calculation, the degree of freedom was 8, since at least 5 bacteria were used in each group. A 50% reduction in growth rate is equivalent to a p-value of approximately 0.022.

Another data set deals with E. coli (EC137). Kind of data set: Single cell AST in adaptable microfluidic device. It counts as cell-based. The conditions noted are these: for antibiotic response in polymicrobial sample: ampicillin 8 μg/mL, mixed with S. epidermidis or EC136.
From the text: as §1, §2, §3

The test system of data set [2] is bacterial 16S rRNA of E. coli. Description: Intracellular 16S rRNA detection with double-stranded probes delivered by NAME. It is filed as cell-based. From the text: (§4) As discussed above, the present disclosure provides a microwave electroporation approach for transforming molecular probes into viable bacteria for intracellular sensing and pathogen identification (FIG. 24). Multiwall carbon nanotubes, which couple and localize the microwave energy, can enhance the electric field in a manner similar to a lightning rod for microwave electroporation with a minimal effect on the cell viability^(14, 15). To evaluate the feasibility of multiplex single cell pathogen identification using NAME, two molecular probes targeting the species-specific regions of bacterial 16S rRNA of E. coli (EC probe) and P. aeruginosa (PA probe) were designed and transformed into the bacteria (Tables 4-5). The performance of the double-stranded nucleic acid probe was first calibrated for use in homogeneous sensing (FIG. 25). For multiplex detection, the PA probe was labeled with 6-carboxyfluorescein (6-FAM) and the EC probe was labeled with 6-carboxytetramethylrhodamine (6-TAMRA). Uropathogenic E. coli and P. aeruginosa were transformed with both probes for pathogen identification (FIG. 20D).
(§5) Four double-stranded probes were used in this disclosure (Table 4). Each probe contained two DNA strands. The donor strands were 22-24 nucleotides long and complementary to the target RNA of interest^(27, 28). The fluorophores, 6-FAM (Fluorescein) or 6-TAMRA (NHS Ester), were labeled at the 3′ end of the donor strands. The quencher strands were 11-12 nucleotides in length. The dark quenchers, Iowa Black FQ for 6-FAM or Iowa Black RQ for 6-TAMRA, were labeled at the 5′ end of the quencher strands immediately adjacent to the fluorophores on the donor strands. The probes were synthesized by Integrated DNA Technologies (Coralville, IA). Other reagents were purchased from Sigma Inc. (St. Louis, MO) unless otherwise specified. To conduct the assay, the probes were made by mixing the fluorophore and quencher strands in the buffer solution, which contains 10 mM Tris-EDTA with 100 mM NaCl at a 1:3 molar ratio, at 95° C. for 5 minutes. The mixtures were then allowed to cool down to room temperature slowly. The final concentration of the probes in the transformation test was 1.5×10^3 nM.
(§6) Bacteria were grown in Mueller Hinton Broth. To transform the double-stranded probe into bacteria, 100 μl of bacterial sample was centrifuged at 4500 rpm for 5 minutes and washed twice with phosphate buffer (PBS 1×). The multiwall carbon nanotubes that are functionalized with a carboxyl group (COOH) have a diameter of 30±15 nm and a length from 1 to 5 μm (NanoLab, Inc.). The nanotube solution (30 mg/ml) was filtered with a 1 μm microfilter. The pellet was resuspended into 100 μl filtered nanotube solution and incubated for 10 minutes at room temperature. Then, 10 μl molecular probe was added and incubated at room temperature for 10 minutes. The sample was incubated in ice for 5 minutes and then put into a microwave oven (700 W, 2.45 GHz) for 10 seconds. The microwave treated bacteria was incubated at room temperature for 30 minutes and washed 3 times with PBS (1×) to remove the extra probes and resuspended in PBS for imaging.

Data set [3] concerns bacterial 16S rRNA of P. aeruginosa. The description is as above. It counts as cell-based.
From the text: as §4, §5, §6

The test system of the next data set is EC137. Description: Testing bacteria resistance with agar pads. It is filed as cell-based, E. coli. The conditions noted are these: with and without ciprofloxacin. From the text:
FIG. 28. Testing bacteria resistance with agar pads. (A) Schematics of the procedure for creating agar pads for single cell AST. […] Scale bars, 25 μm.

Data set [4] concerns M. bacteremicum (ATCC 25791). Kind of data set: Single cell AST in adaptable microfluidic device. It counts as cell-based. Particulars: ciprofloxacin 2 μg/mL; growth/non-growth defined by 50% reduction in growth rate.
From the text: as §1, §2, §3

The next data set has as its system E. coli EC137. Kind of data set: NAME pathogen identification with microfluidic single cell AST. It counts as cell-based. The conditions noted are these: growth in channels with ciprofloxacin. From the text: (§7) We integrated pathogen identification and single cell AST by applying a microfluidic confinement technique (FIG. 23A) (18, from which the description of the microfluidic device and technique is incorporated herein by reference). […] In this integrated identification and AST assay, the bacteria were transformed, loaded into the microchannels via capillary flow, and trapped in the channels for phenotypic AST. […] AST was implemented by monitoring the bacterial growth in the channels with and without the presence of antibiotics.
(§8) The bacteria suspension (1 μl) was loaded onto a microscope slide and covered with a cover glass for imaging and counting using a fluorescence microscope (Leica DMI 4000B, objective 40×). The transformation efficiency was estimated by the number of bacteria with an observable fluorescence intensity over the total number of bacteria (bright-field). To conduct AST, the transformed bacteria were loaded onto the microfluidic device by capillary force.

The test system of a further data set is E. coli EC132. The data set is described as above. Particulars: growth in channels with ciprofloxacin. It is filed as cell-based.
From the text: as §7, §8

For `CC1(C)S[C@@H]2[C@H](NC(=O)[C@H](N)c3ccccc3)C(=O)N2[C@H]1C(=O)O` [ampicillin], the “antibiotic response in polymicrobial sample” value with E. coli (EC136) is reported as “resistant”; in [1], “resistant”; in data set [1] (listed as Ampicillin), “no effect”; with E. coli (EC137) it was “susceptible”; in the data set on E. coli (EC137) (listed as Ampicillin), “bactericidal effect”.

For the molecule “EC probe (Red): double-stranded DNA probe for E. coli 16S rRNA; donor SEQ ID 3 with 3′ 6-TAMRA, quencher SEQ ID 4 with 5′ Iowa Black RQ (sense GGTATTAACTTTACTCCCTTCCTC; antisense GAGGAAGGGAGT; sense: 3' {TAMRA}, sugars by position and backbone not given here; antisense: 5' {IBRQ}, sugars by position and backbone not given here)”, in data set [2] (isolates from clinical blood and urine samples), the “single cell pathogen identification of clinical isolates” value is reported as “specifically identified”. Moreover, the “fluorescence signal from the probe in the bacteria” value in [2] (samples with E. coli only, both probes transformed) is listed as “clearly observed”. Besides, the “fluorescence signal from the probe in the bacteria (non-target probe)” value in [3] (P. aeruginosa samples, EC probe) is recorded as “not”.

Take “PA probe: double-stranded DNA probe for P. aeruginosa 16S rRNA; donor SEQ ID 6 with 3′ 6-FAM, quencher SEQ ID 7 (sense GCTGAACCACCTACGCGCGCTTT; antisense AAAGCGCGCGTA; sense: 3' {FAM}, sugars by position and backbone not given here; antisense: 5' {IBFQ}, sugars by position and backbone not given here)”: the “fluorescence signal from the probe in the bacteria (non-target probe)” value in data set [2] (samples with E. coli only, PA probe) was “not observable”. Besides, the “fluorescence signal from the probe in the bacteria” value in data set [3] (P. aeruginosa samples, both probes transformed) is “high fluorescence signal”. In [3] (isolates from clinical urine samples), the “single cell pathogen identification of clinical isolates” value is recorded as “specifically identified”.

With `Cc1onc(-c2ccccc2)c1C(=O)N[C@@H]1C(=O)N2[C@@H]1SC(C)(C)[C@@H]2C(=O)O` [oxacillin], the “antimicrobial susceptibility (growth in microchannel)” value in [1] (oxacillin 4 μg/mL, growth/non-growth defined by 50% reduction in growth rate) is “completely inhibited the growth”.

For the molecule `O=C(O)c1cn(C2CC2)c2cc(N3CCNCC3)c(F)cc2c1=O` [ciprofloxacin], the “growth in agar pads” value with EC137 is “inhibited the growth”. Moreover, the “antimicrobial susceptibility (growth in microchannel)” value in the data set with E. coli (EC137) (ciprofloxacin 4 μg/mL, growth/non-growth defined by 50% reduction in growth rate) is recorded as “effective”; in data set [4], “effective”. Further, the “antimicrobial susceptibility after NAME” value with E. coli EC137 is given as “susceptible”; with E. coli EC132 it was “resistant”.
